Laboratory results published in patent US4025629A, “P-(trifluoromethylquinolylamino)benzamides, pharmaceutical dosage forms and method of treatment” (The Upjohn Company, priority 1975, dated 1977).
Several values for one entry are separate records, joined by “and”; a condition that tells them apart may be missing. Identical values can stand only once.

Tests used:
[1] = system: Schistosoma Mansoni cercariae; settings: 160 mg./kg. subcutaneously; cited from earlier work
Plasmodium berghei = settings: mice; 160 mg./kg. subcutaneously; cited from earlier work
[2] = system: unanesthetized normotensive rats; test: Hypotensive effect (mean arterial pressure) in unanesthetized normotensive rats, oral aqueous suspension; format: in vivo, rat; settings: for B.P. Change: individual rats
Experimental: An aqueous suspension for oral administration is prepared by suspending the essential active ingredient at a concentration of 10 mg./ml. in an aqueous solution containing 1% of sodium carboxymethylcellulose. This suspension is used for bringing about hypotensive effects in unanesthetized normotensive rats. The rats are prepared for measuring blood pressure directly from the aorta through a chronic indwelling cannula (Weeks and Jones, Proc. Soc. Exptl. Biol. and Med., 104, 646, 1960). Mean arterial pressure is measured prior to and at four hours and 24 hours after drug administration at a specified dose.

[3] = system: male mice (motor activity); test: Inhibition of motor activity of mice on drug-containing diet (actophotometers); format: in vivo, mouse; settings: after 20 hours on diet
Experimental: The essential active ingredient is suspended in a normal mouse diet to provide a concentration in the diet of from about 0.03 to about 0.3%. Groups of male mice, 18-22 gm. each, are fed a stock diet containing various concentrations of the essential active ingredient. Motor activity is determined after 20 hours on the diet, four groups of two mice from each test group being placed in actophotometers. After a ten minute acclimation period, motor activity is recorded for a ten minute period with the following results: […]

Q: With `CN1CCN(C(=O)c2cccc(Nc3ccnc4cc(Cl)ccc34)c2)CC1` [its meta isomer] as the molecule, how does the “activity against Schistosoma Mansoni cercariae in mice” value [1] read?
A: Slight activity

Q: And the “activity against Plasmodium berghei” value (Plasmodium berghei)?
A: Slight activity

Q: What does the source list for `CN1CCN(C(=O)c2ccc(Nc3ccnc4cc(Cl)ccc34)cc2)CC1` [1-[p-[(7-chloro-4-quinolyl)amino]-N,N-(3-methyl-3-azapentamethylene]benzamide]?
A: activity against Schistosoma Mansoni cercariae in mice [1]: Slight activity; activity against Plasmodium berghei (Plasmodium berghei): Slight activity

Q: With `CN1CCN(C(=O)c2ccc(Nc3ccnc4cc(C(F)(F)F)ccc34)cc2)CC1` [essential active ingredient, p-[(7-trifluoromethyl-4-quinolyl)amino]-N,N-(3-methyl-3-azapentamethylene)benzamide] as the molecule, how does the “B.P. Change” value ([2]; oral 1 mg./kg., 4 hr.) read?
A: 0 mm Hg

Q: And the “B.P. Change” value ([2]; oral 1 mg./kg., 24 hr.)?
A: -10 mm Hg and 0 mm Hg

Q: What about the “B.P. Change” value ([2]; oral 3.12 mg./kg., 4 hr.) of the same molecule?
A: -18 mm Hg and +12 mm Hg and 0 mm Hg

Q: What about the “B.P. Change” value ([2]; oral 3.12 mg./kg., 24 hr.) of the same molecule?
A: -18 mm Hg and -10 mm Hg

Q: And the “B.P. Change, avg” value ([2]; oral 6.35 mg./kg., 4 hr., average of 4 rats (initial avg 138))?
A: -13 mm Hg

Q: And the “B.P. Change” value ([2]; oral 6.35 mg./kg., 4 hr.)?
A: -14 mm Hg and -16 mm Hg

Q: And the “B.P. Change, avg” value ([2]; oral 6.35 mg./kg., 24 hr., average of 4 rats (initial avg 138))?
A: -12 mm Hg

Q: What about the “B.P. Change” value ([2]; oral 6.35 mg./kg., 24 hr.) of the same molecule?
A: -10 mm Hg and -14 mm Hg

Q: What about the “B.P. Change, avg” value ([2]; oral 12.5 mg./kg., 24 hr., average of 4 rats (initial avg 132)) of the same molecule?
A: -17 mm Hg

Q: What about the “B.P. Change” value ([2]; oral 12.5 mg./kg., 24 hr.) of the same molecule?
A: -24 mm Hg and -12 mm Hg

Q: What about the “B.P. Change, avg” value ([2]; oral 25 mg./kg., 4 hr., average of 4 rats (initial avg 138)) of the same molecule?
A: -18 mm Hg

Q: And the “B.P. Change” value ([2]; oral 25 mg./kg., 4 hr.)?
A: -22 mm Hg and -30 mm Hg and -12 mm Hg

Q: What about the “B.P. Change, avg” value ([2]; oral 25 mg./kg., 24 hr., average of 4 rats (initial avg 138)) of the same molecule?
A: -23 mm Hg

Q: What about the “B.P. Change” value ([2]; oral 25 mg./kg., 24 hr.) of the same molecule?
A: -22 mm Hg and -28 mm Hg and -20 mm Hg

Q: And the “B.P. Change, avg” value ([2]; oral 50 mg./kg., 4 hr., average of 4 rats (initial avg 133))?
A: -13 mm Hg

Q: What about the “B.P. Change” value ([2]; oral 50 mg./kg., 4 hr.) of the same molecule?
A: -16 mm Hg and -22 mm Hg

Q: What about the “B.P. Change, avg” value ([2]; oral 50 mg./kg., 24 hr., average of 4 rats (initial avg 133)) of the same molecule?
A: -17 mm Hg

Q: What about the “B.P. Change” value ([2]; oral 50 mg./kg., 24 hr.) of the same molecule?
A: -22 mm Hg and -28 mm Hg and 0 mm Hg

Q: And the “% Inhibition Motor Activity” value ([3]; 0.1% conc. in diet, 24 hour drug intake 95 mg./kg.)?
A: 96%

Q: And the “% Inhibition Motor Activity” value ([3]; 0.3% conc. in diet (third line), 24 hour drug intake 47 mg./kg.)?
A: 68%

Q: And the “% Inhibition Motor Activity” value ([3]; 0.3% conc. in diet, 24 hour drug intake 94 mg./kg.)?
A: 92%
